Results on six compounds are retold here after publication PMC11217349, “Development of Nurr1 agonists from amodiaquine by scaffold hopping and fragment growing” (Communications Chemistry, 2024).

“And” between values parts separate entries of the source, which are not always exact repeats. Equal values may be shown once.

Data set [1] relates to HBEC-5i human brain endothelial cells. Put plainly: In vitro blood-brain-barrier model. The class given is in vitro ADME. To be noted: HBEC-5i trans-well, 10 µM, 60 min. The protocol: Permeation of test compounds through a human brain endothelial cell barrier was evaluated using the Corning Costar 3470 Transwell Plate system (0.4 μm pore diameter with 6.5 mm inserts) and HBEC-5i cells (ATCC, CRL-3245). Filter inserts were coated one day before seeding with 50 μL 0.01% rat-tail collagen type I ([…], Sigma-Aldrich) in PBS. 60,000 HBEC-5i cells in 100 μL HBEC-5i-Medium (DMEM/F12 with 10% FCS and 40 μg/mL ECGS) were seeded after aspiration of the coating-supernatant in each insert with 600 μL HBEC-5i-Medium in each receiver well. After 24 h incubation at 37 °C with 5% CO2, the medium was exchanged to 600 μL T98G cell supernatant in receiver wells and 100 μL fresh HBEC-5i-Medium in inserts. The medium exchange was repeated every second day. On day 7 after seeding, the medium in the receiver wells was replaced by 600 μL Hank's balanced salt solution (HBSS) containing 10 mM HEPES and 0.1% DMSO and 100 μL test compound mixtures (antipyrine and test compound; each at 10 μM) in HBSS containing 10 mM HEPES and 0.1% DMSO were added to inserts. After 60 min incubation, 100 μL samples were taken from the receiver wells and diluted in 400 μL (75%/25% A/B; A=Formic acid 0.1% in water; B = Acetonitrile). Test compound concentrations in the samples were determined by LC-MS/MS on an API-3200-QTrap (Sciex) equipped with an Agilent Technologies 1100 series setup including a binary pump […]), and a Shimadzu […] autosampler under the control of Analyst 1.6 (Sciex). […] B) for 6 min going to (50%:50%) after 8 min. 5 μL of aspirated supernatant diluted in mobile phase starting conditions was loaded onto the column, separated at a flow rate of 400 μL/min, and quantified per Area of MRM (multiple reaction monitoring).

Data set [2] can be described thus: Parallel artificial membrane permeability assay (PAMPA). The class given is in vitro ADME. The following applies: 500 µM donor, pH 7.4, 18 h. The protocol:
Passive lipid membrane diffusion of test compounds was determined using Merck Millipore MultiScreen Filter Plates (0.45 μm pore diameter, hydrophobic PVDF). The filter inserts were coated with 1% L-α-phosphatidylcholine (Fluka Analytical) in n-dodecan. The test compounds were then added to the donor compartment at a final concentration of 500 µM in a phosphate buffer pH 7.4 containing 5% DMSO with a total volume of 150 µL. The acceptor compartment was filled with 300 µL PBS containing 5% DMSO. Additionally, three equilibrium samples were prepared by directly adding the donor solution to the acceptor compartment for the calculation of log Pe values. The filter plates were incubated for 18 h before the test compound concentrations in the acceptor compartments and in the equilibrium, samples were determined by UV absorbance at 320 nm (34), 360 nm (36), 310 nm (41), or 315 nm (42) with external calibration in a 96 well quartz plate on a SpectraMax M2e microplate reader (Molecular Devices). logPe values were calculated according to the formula published by Sugano and colleagues.

Data set [3] deals with T1, human Nurr1 (hinge region and ligand binding domain) (Homo sapiens, UniProt P43354).
T1 construct: expressed in transfected cells; host or cells: HEK293T
The experiment in a line: Gal4-Nurr1 hybrid reporter gene assay. Format: cell-based. The following applies: mean ± SD, n ≥ 3; for EC50: Gal4-Nurr1 hybrid reporter, HEK293T, read-out: EC50(Nurr1); for max. activation: maximum effect vs. 0.1% DMSO control. The protocol:
Nurr1 modulation was determined in a Gal4 hybrid reporter gene assay in HEK293T cells (German Collection of Microorganisms and Cell Culture GmbH, DSMZ) using pFR-Luc (Stratagene, La Jolla, CA, USA; reporter), pRL-SV40 (Promega, Madison, WI, USA; internal control) and pFA-CMV-hNurr1-LBD[14], coding for the hinge region and ligand binding domain of the canonical isoform of human Nurr1. […] After 24 h, the medium was changed to Opti-MEM without supplements, and cells were transiently transfected using Lipofectamine LTX reagent (Invitrogen, Carlsbad, CA, USA) according to the manufacturer’s protocol. Five hours after transfection, cells were incubated with the test compounds in Opti-MEM supplemented with penicillin (100 U/mL), streptomycin (100 μg/mL), and 0.1% DMSO for 16 h before luciferase activity was measured using the Dual-Glo Luciferase Assay System (Promega) according to the manufacturer’s protocol on a Tecan Spark luminometer (Tecan Deutschland GmbH, Crailsheim, Germany). Firefly luminescence was divided by Renilla luminescence and multiplied by 1000 resulting in relative light units (RLU) to normalize for transfection efficiency and cell growth. Fold activation was obtained by dividing the mean RLU of the test compound by the mean RLU of the untreated control. All samples were tested in at least three biologically independent experiments in duplicates. For dose-response curve fitting and calculation of EC50 values, the equation “[Agonist] vs. response -- Variable slope (four parameters)” was used in GraphPad Prism (version 7.00, GraphPad Software, La Jolla, CA, USA). Selectivity profiling was performed with identical procedures using pFA-CMV-Nur77-LBD[14], pFA-CMV-NOR-1-LBD[14], pFA-CMV-THRα-LBD[51], pFA-CMV-RARα-LBD[52], pFA-CMV-PPARα-LBD[53], pFA-CMV-PPARγ-LBD[53], pFA-CMV-PPARδ-LBD[53], pFA-CMV-LXRα-LBD[54], pFA-CMV-FXR-LBD[55] and pFA-CMV-hRXRα-LBD[56].

A short description of a further data set: Microsomal stability. To be noted: male, Sprague-Dawley, pH 7.4; rat liver microsomes, 10 µM, LCMS. Format: in vitro ADME, rat. As for the experimental part: To determine microsomal stability, test compounds (10 μM) were incubated in 100 mM potassium phosphate buffer at pH 7.4 (total volume of 100 µL) containing 0.5 mg/mL male rat liver microsomes (Sprague-Dawley, no. M9066, Merck KGaA, Darmstadt) and 1 mM NADPH for 0, 15, 30, or 60 min. At the end of the incubation time, microsomal activity was terminated by the addition of 500 µL MeCN and subsequent centrifugation at 1700 g for 5 min. A reaction mixture containing heat-inactivated microsomes (95 °C, 10 min) was prepared as a control for each compound. 5 µL supernatant of each sample was analyzed and the remaining concentrations of the respective test compounds at each time point were determined by LC-MS/MS on an API-3200-QTrap (Sciex) with an Agilent Technologies 1100 series setup including a binary pump (G1311A), a degasser (G1322A), and a Shimadzu SIL 20 A HT autosampler under the control of Analyst 1.6 (Sciex). A XBridge BEH C18 (3.5 µm, 150 mm×3 mm, Waters, protected with a 0.5 µm frit) stationary phase was used in combination with a gradient method starting with 0.1% formic acid in water (A) and MeCN (B) as mobile phase (A:B = 80:20) for 6 min going to A: B = 50:50 after 8 min. 5 µL of supernatant diluted in mobile phase starting conditions was loaded onto the column, separated at a flow rate of 400 µL/min, and detected and quantified per Area of MRM (multiple reaction monitoring) with the following transitions: m/z 381.797/145.000 (34); m/z 395.125/158.200 (36); m/z 409.822/131.000 (41); m/z 407.838/171.100 (42).

The test system of the next data set is Nurr1. Also on record: method as in PMID 33289551. To be noted: independent evaluation; cited from earlier work.

T1 sequence (P43354 360-595 limits assumed): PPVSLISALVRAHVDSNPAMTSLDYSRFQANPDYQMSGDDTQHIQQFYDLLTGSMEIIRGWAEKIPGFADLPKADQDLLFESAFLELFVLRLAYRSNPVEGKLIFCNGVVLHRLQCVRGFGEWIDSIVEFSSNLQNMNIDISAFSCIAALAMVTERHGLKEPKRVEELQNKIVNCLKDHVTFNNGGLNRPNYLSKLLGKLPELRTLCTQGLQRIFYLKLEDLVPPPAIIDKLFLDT

Take `Cc1cc(=O)n(-c2ccccc2)n1C` [antipyrine, reference compound]: the “logPe (BBB)” value in data set [1] is -4.6402 and -4.7739 and -4.62 and -4.578 and -4.647.

As for `CC(C)NCC(O)COc1cccc2ccccc12` (stereo not shown) [propranolol, reference compound], the “logPe (PAMPA)” value in data set [2] was -5.096 and -5.109 and -5.101 and -5.087 and -5.042 and -5.07.

With `Cc1nc2c(Cl)cccn2c1NC(=O)c1ccc(-c2ccc(OC3CC3)cc2)o1` [Compound 42, N-(8-Chloro-2-methylimidazo[1,2-a]pyridin-3-yl)-5-(4-cyclopropoxyphenyl)furan-2-carboxamide], in data set [3], the EC50 was determined as 120 ± 60 nM and the max. activation was 1.5 ± 0.2 fold. In addition, the “logPe (PAMPA)” value in data set [2] is -5.857 and -5.822 and -5.789 and -5.846 and -5.806. The “logPe (BBB)” value in data set [1] is -5.049 and -5.059 and -4.946 and -5.046 and -4.96 and -4.965. Besides, the half-life at 10 µM in the data set “Microsomal stability” is 78 ± 7 min.

For `COc1ccc(-c2ccc(C(=O)Nc3c(C)nc4c(Cl)cccn34)o2)cc1` [Compound 34], in data set [3], the concentration giving a half-maximal response (EC50) was 160 ± 60 nM and the max. activation is 1.7 ± 0.1 fold. Moreover, the “logPe (PAMPA)” value in data set [2] is -5.478 and -5.491 and -5.489 and -5.4212 and -5.4577. Also, in “Microsomal stability”, the half-life at 10 µM was determined as 18 ± 2 min.

`Cc1nc2c(Cl)cccn2c1NC(=O)c1ccc(-c2ccc(OC(C)C)cc2)o1` [Compound 41]: in data set [3], the EC50 was determined as 120 ± 30 nM and the max. activation was determined as 2.1 ± 0.2 fold. Further, in data set [2], the “logPe (PAMPA)” value is -5.684 and -5.708 and -5.674 and -5.7032 and -5.723 and -5.7183. Besides, in the data set “Microsomal stability”, the half-life at 10 µM was determined as 42 ± 5 min.

Regarding `O=C(Nc1ccccc1)c1cn2cc(-c3ccccn3)ccc2n1` [SR24237], in the data set with Nurr1, the “binding to Nurr1” value is on record as “no evidence for binding”.
